Experimental data published in patent US20220348590A1, “CYCLOOXYGENASE-2 INHIBITORS AND USES THEREOF” (The Board Institute, Inc., priority 2019, published 2022).
pIC50: −log10 of the molar value. Converted amounts (≈) assume the structure as drawn. Where two headings read alike, the source gives them in different places.

How the values were obtained:
ovine COX-1 (oCOX-1) = target: T1, ovine COX-1 (oCOX-1) (Ovis aries, UniProt P05979); assay: LCMS-based COX-1 enzymatic inhibition assay (PGE2 quantification); type: biochemical; settings: 10 minutes
T1 construct: purchased Cayman Chemicals (Ann Arbor, Mich.)
T1 sequence (P05979 25-600): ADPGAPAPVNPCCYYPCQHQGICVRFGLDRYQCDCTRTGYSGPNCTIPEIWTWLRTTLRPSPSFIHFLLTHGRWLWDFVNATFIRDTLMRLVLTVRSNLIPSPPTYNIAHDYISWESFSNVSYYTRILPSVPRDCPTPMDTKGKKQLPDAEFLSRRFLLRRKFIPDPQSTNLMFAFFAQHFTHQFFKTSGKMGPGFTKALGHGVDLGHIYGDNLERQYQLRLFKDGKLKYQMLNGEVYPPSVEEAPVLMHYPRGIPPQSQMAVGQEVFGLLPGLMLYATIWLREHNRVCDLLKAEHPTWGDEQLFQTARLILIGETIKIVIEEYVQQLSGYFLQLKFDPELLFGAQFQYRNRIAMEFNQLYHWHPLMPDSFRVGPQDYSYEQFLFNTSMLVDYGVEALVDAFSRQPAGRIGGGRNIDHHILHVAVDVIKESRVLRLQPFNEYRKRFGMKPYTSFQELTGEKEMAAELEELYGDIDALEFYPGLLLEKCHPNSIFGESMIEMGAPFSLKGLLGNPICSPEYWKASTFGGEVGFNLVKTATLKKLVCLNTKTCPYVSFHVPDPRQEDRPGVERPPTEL
Method in brief: (§1)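 PGE2 formed from arachidonic acid (final 5 μM, 2 min) was measured by LC-MS-MS against DMSO controls. Enzyme (oCOX-1 0.1 μg or hCOX2 0.2 μg) with hematin/epinephrine cofactors at pH 8.0 was given 10 min at 37 °C with compound first. Twelve-point curves run three times gave IC50.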

[1] = Human Microsome Stability; type: in vitro ADME; settings: human microsomes
[2] = target: T2, human recombinant COX2 (hCOX2) (UniProt P35354); assay: LCMS-based COX2 enzymatic inhibition assay (PGE2 quantification); type: biochemical; set-up: COX2 2 minutes pge2/pge2d4 area ratio Avg; other: 2 minutes; readout pge2/pge2d4 area ratio; average; COX2 2 minutes pge2/pge2d4 area ratio Avg; LLE; average LLE; COX2 2 minutes pge2 area (counts) Avg; readout pge2 area (counts); other: 2 min; "ovine COX2 (oCOX2), human recombinant COX2 (hCOX2)"; settings: for COX2 2 minutes pge2/pge2d4 area ratio Avg. LLE / COX2 2 minutes pge2 area (counts) Avg. LLE / COX2 10 minutes pge2 area (counts) Avg. LLE: average LLE; for pIC50: average
T2 sequence (P35354 1-604): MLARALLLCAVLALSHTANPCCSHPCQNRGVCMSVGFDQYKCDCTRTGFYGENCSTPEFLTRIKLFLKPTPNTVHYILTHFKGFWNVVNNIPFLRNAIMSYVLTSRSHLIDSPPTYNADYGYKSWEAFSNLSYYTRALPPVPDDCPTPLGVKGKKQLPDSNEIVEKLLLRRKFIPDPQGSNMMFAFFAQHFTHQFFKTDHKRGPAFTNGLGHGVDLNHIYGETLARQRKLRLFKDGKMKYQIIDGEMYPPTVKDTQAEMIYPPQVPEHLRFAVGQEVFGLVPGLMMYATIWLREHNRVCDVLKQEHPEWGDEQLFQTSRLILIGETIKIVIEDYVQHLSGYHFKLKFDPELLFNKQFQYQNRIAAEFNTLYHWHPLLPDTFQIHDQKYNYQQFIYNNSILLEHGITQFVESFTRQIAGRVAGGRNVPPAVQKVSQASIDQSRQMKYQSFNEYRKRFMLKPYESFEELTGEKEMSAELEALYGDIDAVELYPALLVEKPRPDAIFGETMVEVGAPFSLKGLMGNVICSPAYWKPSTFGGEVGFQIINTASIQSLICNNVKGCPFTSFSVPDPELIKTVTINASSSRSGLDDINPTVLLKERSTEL
Method in brief: as §1

[3] = Mouse Microsome Stability; type: in vitro ADME; settings: mouse microsomes
[4] = target: T2, human recombinant COX2 (hCOX2); assay: LCMS-based COX2 enzymatic inhibition assay (PGE2 quantification); type: biochemical; set-up: improvement in potency; other: COX2 potency relative to MC1 / earlier ligand; comparator not always stated; other: vs MC1 (MC-1); settings: COX2 potency relative to MC1 / earlier ligand; comparator not always stated
Method: (§2) We have adapted a previously reported cyclooxygenase enzymatic assay utilizing LCMS quantification of PGE2 as the product of COX-1 and COX2 catalyzed conversion of arachidonic acid to evaluate the binding properties of newly synthesized ligands [Cao, 2011]. These optimized and miniaturized (384-well plates) LCMS-based COX-1 and COX2 enzymatic assays enabled us to quickly evaluate newly synthesized ligands for COX2 binding affinity and selectivity vs COX-1. Using a shorter ligand-enzyme incubation time in the LCMS assay (2 minutes vs 10 minutes) also permitted us to prioritize ligands with faster binding kinetics. Considering the relatively slow on-rate kinetics of known coxibs, due to their 3-step binding mechanism [Marnett, 2009], we believe that optimizing this critical parameter will be key to the successful development of a COX2 PET tracer. Using these enzymatic assays, we have evaluated>200 newly synthesized ligands against COX2 and >20 ligands against COX-1. Another critical property necessary for a good PET radiotracer is to have low non-specific binding (NSB) to increase the free fraction and maximize the signal to noise ratio. This property can be evaluated using in-vitro protein binding assays, and we have now evaluated>50 newly synthesized ligands in mouse, rat and human plasma protein binding (PPB) assays as well as >15 ligands in a mouse brain protein binding (BPB) assay.
Ovine COX-1 (oCOX-1), ovine COX2 (oCOX2), human recombinant COX2 (hCOX2), arachidonic acid, PGE2, d4-PGD2, and […] (labeled with deuterium atoms at positions 3 and 4) were purchased from Cayman Chemicals (Ann Arbor, Mich.). The cofactors (−)epinephrine and hematin, and the COX inhibitors indomethacin, resveratrol and diclofenac were purchased from Sigma-Aldrich (St. Louis, Mo.). Celecoxib was purchased from 3B PharmaChem International (Wuhan, China). All organic solvents were HPLC grade or better and were purchased from Thermo Fisher (Hanover Park, Ill.). Formic acid was purchased from EMD Chemicals (San Diego, Calif.). Purified water was prepared by using a Millipore Milli-Q purification system (Millipore, Billerica, Mass.). All other chemicals and solvents were ACS reagent grade, unless stated otherwise.
In an Eppendorf tube, 146 μL of 100 mM Tris.HCl (pH 8.0) buffer, 2 μL of 100 μM hematin (co-factor) and 10 μL of 40 mM L-epinephrine (co-factor) were mixed at room temperature. […]
The concentration of PGE2 in each sample was measured using LC-MS-MS, and the percent of COX inhibition by each test solution was determined by comparing the amount of PGE2 produced in the experiment with that produced in the negative control incubation. The formation of PGD2 was measured for quality control purposes, since the levels of PGD2 should be proportional to those of PGE2. […]

[5] = in-vitro protein binding: free fraction / fraction unbound, matrix and species not given; type: in vitro ADME
Method: as §2

PBS Solubility (no DMSO) = type: physicochemical; settings: aqueous buffer, thermodynamic from solid, average
Rat Microsome Stability = type: in vitro ADME; settings: rat microsomes
[6] = mouse plasma protein binding (PPB) assay; type: in vitro ADME; settings: average, read-out: Mouse Plasma Protein Binding % Bound Avg (converted)
Method: as §2

[7] = Mouse Plasma Protein Stability (% Remaining); type: in vitro ADME; settings: average
[8] = rat plasma protein binding (PPB) assay; type: in vitro ADME; settings: average, read-out: Rat Plasma Protein Binding % Bound Avg (converted)
Method: as §2

[9] = Rat Plasma Protein Stability (% Remaining); type: in vitro ADME; settings: average
MDR1 = assay: MDR1-MDCKII permeability and efflux; type: in vitro ADME; settings: dog, MDCK-MDR1
[10] = pge2 area (counts), head of this section not shown, inferred
[11] = 2 minutes, readout pge2/pge2d4 area ratio
[12] = 2 minutes, readout pge2/pge2d4 area ratio, read-out: COX2 2 minutes pge2/pge2d4 area ratio Avg. IC50
[13] = 2 minutes, readout pge2 area (counts)
[14] = 2 minutes, readout pge2 area (counts), read-out: COX2 2 minutes pge2 area (counts) Avg. IC50
[15] = 10 minutes, readout pge2 area (counts)
[16] = 10 minutes, readout pge2 area (counts), read-out: COX2 10 minutes pge2 area (counts) Avg. IC50
[17] = head of this section not shown, inferred
[18] = pge2 area (counts), head of this section not shown, inferred, read-out: COX1 10 minutes pge2 area (counts) Avg. IC50
[19] = readout pge2/pge2d4 area ratio, average, read-out: COX1 10 minutes pge2/pge2d4 area ratio Avg. IC50

Row | SMILES | COX1 10 minutes pge2 area (counts) Avg. LLE (ovine COX-1 (oCOX-1); [10]) | Human Microsome Stability % Remaining Avg [1] [%] | COX2 2 minutes pge2/pge2d4 area ratio Avg. LLE [2, 11] | pIC50 [2, 12] | COX2 2 minutes pge2 area (counts) Avg. LLE [2, 13] | pIC50 [2, 14] | COX2 10 minutes pge2 area (counts) Avg. LLE [2, 15] | pIC50 [2, 16] | Mouse Microsome Stability % Remaining Avg [3] [%] | further results
1 | CS(=O)(=O)c1ccc(-c2cncc(NCc3ccco3)n2)cc1 [Compound 120] | 2.724 | 32.4 | 5.371 | 6.93 | 5.44 | 6.91 | 6.397 | 7.94 | 1.6 | –
2 | COc1cc(OCc2cccs2)nc(-c2ccc(S(C)(=O)=O)cc2)n1 [Compound 331] | – | – | – | – | – | – | – | – | – | improvement in potency [4]: 10 fold
3 | COc1ncc(-c2ccc(S(C)(=O)=O)cc2)nc1NCc1cccs1 [Compound 116] | – | – | 4.506 | 6.97 | 4.564 | 7.00 | – | – | – | improvement in potency [4]: ~6 fold; fraction unbound [5]: 0.025
4 | CS(=O)(=O)c1ccc(-c2cncc(NCc3cccs3)n2)cn1 [Compound 141] | – | 55 | 5.497 | 6.67 | 5.579 | 6.75 | 6.4815 | 7.65 | 10 | –
5 | COc1ncc(NCc2ccco2)nc1-c1ccc(S(C)(=O)=O)cc1 [Compound 43] | – | – | 5.827 | 7.71 | 5.859 | 7.73 | – | – | – | COX1 10 minutes pge2 area (counts) Avg. LLE (ovine COX-1 (oCOX-1); readout pge2 area (counts), average LLE): 2.44; pIC50 (ovine COX-1 (oCOX-1); readout pge2 area (counts), average, read-out: COX1 10 minutes pge2 area (counts) Avg. IC50): 4.37; solubility (PBS Solubility (no DMSO)): 21 µM (≈ 7.55 µg/mL); Rat Microsome Stability % Remaining Avg (Rat Microsome Stability): 11.1%; fraction unbound [6]: 0.046; Mouse Plasma Protein Stability % Remaining Avg [7]: 102.6%; fraction unbound [8]: 0.028; Rat Plasma Protein Stability % Remaining Avg [9]: 107.3%
6 | CS(=O)(=O)c1ccc(-c2cnc3ccn(Cc4cccs4)c3n2)cc1 [Compound 74] | 2.996 | – | 3.899 | 7.36 | 3.894 | 7.32 | 5.561 | 9.03 | – | COX1 10 minutes pge2/pge2d4 area ratio Avg. LLE (ovine COX-1 (oCOX-1); [17]): 3.046; pIC50 (ovine COX-1 (oCOX-1); [18]): 6.47; pIC50 (ovine COX-1 (oCOX-1); [19]): 6.52; efflux ratio (MDR1): 1; Papp A→B (MDR1; A-B, read-out: MDR1-MCKII Papp A-B): 32.2 ×10⁻⁶ cm/s; Papp B→A (MDR1; B-A, read-out: MDR1-MCKII Papp B-A): 32 ×10⁻⁶ cm/s
7 | CS(=O)(=O)c1ccc(-c2cncc(NCc3ccc(F)cc3)n2)cc1 [Compound 96] | 2.128 | 54.9 | 4.85 | 7.13 | 4.897 | 7.07 | 5.83 | 8.10 | 30.5 | COX1 10 minutes pge2/pge2d4 area ratio Avg. LLE (ovine COX-1 (oCOX-1); [17]): 2.186; pIC50 (ovine COX-1 (oCOX-1); [18]): 4.41; pIC50 (ovine COX-1 (oCOX-1); [19]): 4.47
